From patent US20190151256A1, “Composition Including Nonanal As Active Ingredient For Preventing Hair Loss Or Stimulating Hair Development” (Industry-Academic Cooperation Foundation, Yonsei University, priority 2017, published 2019)

Assays:
β-catenin [1] = assay: Western blot of dorsal skin tissue; format: in vivo, mouse; details: Western blotting
Procedure: A predetermined amount of skin tissue was homogenized with liquid nitrogen and a lysis buffer using a mortar and centrifuged at 13,000×g and 4° C. for 20 minutes to obtain an intermediate layer, and then a protein was quantified by the Bradford method. 50 μg of the protein was subjected to electrophoresis on an SDS polyacrylamide gel and electroblotted onto a PVDF hyperfilm, and then reacted with a β-catenin or β-actin antibody (Cell Signaling Technology, Danvers, Mass., USA). A signal of each protein was visualized using a chemiluminescent detection system (Amersham), and then a band thickness was quantified using the Quantity One Analysis Software (Bo-Rad Laboratories).

hair follicles = assay: histological analysis of dorsal skin; format: in vivo, C57BL/6N mice; details: 4 weeks of application
Description: The experimental animals were sacrificed after four weeks of the application, and a dorsal skin tissue specimen was extracted from the test material-applied region using scissors and forceps, and then fixed with formalin. By steps, the resulting specimen was dehydrated with an alcohol and xylene, embedded in paraffin, sliced into a 5-μm fragment using a microtome, and treated again with an alcohol and xylene to remove paraffin. After hematoxylin-eosin staining, a histological change in hair follicle tissue was observed using an optical microscope. The hair development cycle was evaluated by a pathologist, the number and diameter of hair follicles were measured using an optical microscope, and the number of hair follicles in the test group was measured under a 40× optical microscope.

telogen-phase hair = assay: hair development state and hair length in shaved mice; format: in vivo, C57BL/6N mice; details: dermal 3 mg/mouse/day
Procedure: To visually examine a hair growth state, 1, 2, 3, and 4 weeks after the application started, the experimental animals were slightly anesthetized with ether, and a dorsal region was photographed. To evaluate the degree of hair growth, the hair length was measured using a ruler.

[2] = clinical studies, 1% solution; cited from earlier work
T-Cell factor (TCF) = assay: q-PCR gene expression in dorsal skin tissue; format: in vivo, mouse; details: 4 weeks
Procedure: (§1) To quantify total RNA in skin tissue of the experimental animals, 1 mL of a TRIzol solution was added to 50 to 100 mg of skin tissue and homogenized, and then centrifuged at 4° C. and 12,000×g for 10 minutes. The supernatant was transferred to a new tube, 200 μl of chloroform was added, and then the resulting mixture was vigorously shaken. This process was repeated twice, then the supernatant was transferred to a new tube, in which isopropanol and the supernatant were added in a ratio of 1:1. The resulting mixture was shaken 10 times, and maintained at room temperature for 10 minutes and centrifuged at 12,000×g and 4° C. for 10 minutes to remove the supernatant. Then, 1 ml of 70% ethanol was added to the remaining pellet and centrifuged at 7,500×g and 4° C. for 5 minutes. Following the removal of ethanol, a tube containing the RNA pellet was dried at room temperature for 5 minutes, and the RNA pellet was dissolved in nuclease-free water. Concentrations of the extracted RNA specimens at 260 nm and 280 nm wavelengths were measured using a UV/VIS spectrophotometer (Beckman Coulter, DU730), and agarose gel electrophoresis was performed to confirm the integrity of the RNA specimens.
(§2) Following the isolation of RNA, cDNA was synthesized by performing reverse transcription using an oligo dT primer and a Superscript reverse transcriptase (Gibco BRL, Gaithersburg, Md., USA). To measure expression levels of genes, real-time q-PCR was performed using SYBR Green (Bio-Rad, Hercules, Calif., USA), and the instrument used was a CFX Connect™ Real-Time PCR Detection System (Bio-Rad).
(§3) For real time PCR, 2 μL of cDNA, 10 μL of a 2× SYBR mix, 1 μL each of a forward primer and a reverse primer (10 to 20 pmol/μL) were added, and then, H2O was filled to the final volume 20 μL. A PCR extension step was performed as follows, and 35 extension cycles was performed. The extension was performed at 95° C. for 1 minute for hot start, at 95° C. for 15 seconds for denaturation in the extension step, at 55° C. for 30 seconds for annealing, and at 72° C. for 1 minute for extension. After all cycles were completed, to identify primer specificity, melting curve analysis was performed.
(§4) Change in expression of a β-catenin signaling material known as a mechanism for promoting hair development in skin tissue was analyzed by q-PCR analysis on dorsal skin tissue of a mouse to which the test material was applied for 4 weeks.

β-catenin [3] = assay: q-PCR gene expression in dorsal skin tissue; format: in vivo, mouse; details: 4 weeks
Procedure: as §1, §2, §3, §4

Cyclin D1 = assay: q-PCR gene expression in dorsal skin tissue; format: in vivo, mouse; details: 4 weeks
Procedure: as §1, §2, §3, §4

[4] = tested on: Lymphoid enhancer factor (LEF); assay: q-PCR gene expression in dorsal skin tissue; format: in vivo, mouse; details: 4 weeks
Procedure: as §1, §2, §3, §4

rats = details: oral; cited from earlier work
rabbits = details: transdermal; cited from earlier work
diarrhea-induced mice = details: cited from earlier work
[5] = change in body weight during dermal application; details: after 4 weeks of application, 3 mg/mouse/day dermal
Procedure: Experiments were carried out using 24 male C57BL/6N mice aged 6 weeks, which were purchased from OrientBio Inc., acclimated for two weeks in a laboratory environment, and then divided into a total of three groups (n=5) of a negative control (CON), a positive control (MXD) and a nonanal group (NN). An animal laboratory was maintained at 21±2.0° C., a relative humidity of 50±5%, on a 12-hour day/night cycle. During the experimental period, a general solid feed (chow) and water were freely offered to the mice.
To investigate a hair development effect, an 8-week-old mouse with telogen-phase hair, in which a dorsal skin color was pink, were used. The dorsal hair of the mouse was removed using a clipper for a mouse, and the sample was applied daily at 4 p.m. for 4 weeks. The test material nonanal (3 mg/mouse/day) and the control drug Minoxidil (3 mg/mouse/day) were applied after being dissolved in the vehicle (ethanol:water:propylene glycol=5:3:2), and only the vehicle was applied to the negative control group.
A body weight of the experimental animal from immediately before the application of an agent for hair development to the end of the application was measured weekly.

CCCCCCCCC=O [nonanal]
increase in β-catenin protein expression compared with negative control (β-catenin [1]): 71%
β-catenin protein expression effect compared with Minoxidil group (β-catenin [1]): superior to that of the Minoxidil group
increase in number of hair follicles compared with negative control (hair follicles): 166%
microscopy of hair follicles (hair follicles): hair follicles elongated to come out of the skin
increase in hair follicle diameter compared with negative control (hair follicles; image analysis): 38%
hair length at three weeks (telogen-phase hair; 3 weeks): significantly increased
visual hair growth after 4 weeks (telogen-phase hair; 4 weeks, vs negative control): hair grew more evenly and fully in more individuals than that in the negative control group
increase in hair length compared with negative control (telogen-phase hair; after four weeks, p<0.001): 434%
visual hair growth (onset) (telogen-phase hair; weekly photographs): from three weeks of the application, hair began to grow
dermal irritation or sensitization reaction [2]: no dermal irritation or sensitization reaction
TCF gene expression compared with negative control (T-Cell factor (TCF)): significantly increased
β-catenin gene expression compared with negative control (β-catenin [3]): significantly increased
cyclin D1 gene expression compared with negative control (Cyclin D1): significantly increased
LEF gene expression compared with negative control [4]: significantly increased
lethal dose 50% (LD50 value) (rats): 5,000 mg/kg
LD50 value (rabbits): 5,000 mg/kg
inhibition of diarrhea (diarrhea-induced mice): significant effect in inhibition of diarrhea

Nc1cc(N2CCCCC2)nc(N)[n+]1[O-] [Minoxidil]
body weight, difference between test groups [5]: no significant difference
